Test results taken from patent US9040458B2, “Safening composition of 6-(trisubstituded phenyl)-4-amino-2-pyridinecarboxylate herbicides and cloquintocet-mexyl for cereal crops” (Dow AgroSciences LLC, priority 2008, dated 2015).

How the values were obtained:
[1] = test system: PAPRH (corn poppy); assay: Postemergence herbicidal activity, greenhouse, visual injury; assay type: in vivo, Papaver rhoeas; conditions: 20-22 d
Description: (§1) Seeds of the desired test plant species were planted in Sun Gro MetroMix® 306 planting mixture, which typically has a pH of 6.0 to 6.8 and an organic matter content of about 30 percent, in plastic pots with a surface area of 103.2 square centimeters (cm^2). When required to ensure good germination and healthy plants, a fungicide treatment and/or other chemical or physical treatment was applied. The plants were grown for 7-36 days (d) in a greenhouse with an approximate […] photoperiod which was maintained at about 18° C. during the day and 17° C. during the night. Nutrients and water were added on a regular basis and supplemental lighting was provided with overhead metal halide 1000-Watt lamps as necessary. The plants were employed for testing when they reached the second or third true leaf stage.
(§2) Weighed amounts of esters (methyl) or salts (TEA [triethylammonium], potassium [K]) of 4-amino-3-chloro-6-(4-chloro-2-fluoro-3-methoxyphenyl)pyridine-2-carboxylic acid (Compound 1) were dissolved in a volume of 97:3 volume/volume (v/v) acetone/dimethylsulfoxide (DMSO) to obtain stock solutions. […] The concentrated stock solutions were diluted with an aqueous mixture of 1.5% v/v of Agri-dex crop oil concentrate to provide the appropriate application rates. Compound requirements are based upon a 12 mL application volume at a rate of 187 liters per hectare (L/ha). Stocks solutions of the safeners were prepared following the same procedure. Spray solutions of the safeners and experimental compound mixtures were prepared by adding the appropriate volume of both stock solutions to the appropriate amount of dilution solution to form a 12 mL spray solution with active ingredients in two-way combinations. Formulated compounds were applied to the plant material with an overhead Mandel track sprayer equipped with 8002E nozzles calibrated to deliver 187 L/ha over an application area of 0.503 square meters (m^2) at a spray height of 18 inches (43 centimeters (cm)) above average plant canopy. Control plants were sprayed in the same manner with the solvent blank.
(§3) The treated plants and control plants were placed in a greenhouse as described above and watered by sub-irrigation to prevent wash-off of the test compounds. After 20-22 d, the condition of the test plants as compared with that of the control plants was determined visually and scored on a scale of 0 to 100 percent where 0 corresponds to no injury and 100 corresponds to complete kill.
(§4) Colby's equation was used to determine the herbicidal effects expected from the mixtures (Colby, S. R., Calculation of the synergistic and antagonistic response of herbicide combinations. Weeds 1967, 15, 20-22.).
(§5) The following equation was used to calculate the expected activity of mixtures containing two active ingredients, A and B: Expected=A+B−(A×B/100)
(§6) A=observed efficacy of active ingredient A at the same concentration as used in the mixture.
(§7) B=observed efficacy of active ingredient B at the same concentration as used in the mixture.

[2] = test system: LAMPU (purple deadnettle); assay: as above; assay type: in vivo, Lamium purpureum; conditions: 20-22 d
Description: as §1, §2, §3, §4, §5, §6, §7

[3] = test system: POLCO (wild buckwheat); assay: as above; assay type: in vivo, Polygonum convolvulus; conditions: 20-22 d
Description: as §1, §2, §3, §4, §5, §6, §7

[4] = test system: MATCH = Matricaria chamomila (scented mayweed); assay: as above; assay type: in vivo; conditions: 20-22 d
Description: as §1, §2, §3, §4, §5, §6, §7

[5] = test system: VIOTR = Viola tricolor (wild pansy); assay: as above; assay type: in vivo; conditions: 20-22 d
Description: as §1, §2, §3, §4, §5, §6, §7

[6] = test system: STEME = Stellaria media (common chickweed); assay: as above; assay type: in vivo; conditions: 20-22 d
Description: as §1, §2, §3, §4, §5, §6, §7

[7] = test system: GALAP = Galium aparine (cleavers); assay: as above; assay type: in vivo; conditions: 20-22 d
Description: as §1, §2, §3, §4, §5, §6, §7

[8] = test system: KCHSC = Kochia scoparia (kochia); assay: as above; assay type: in vivo; conditions: 20-22 d
Description: as §1, §2, §3, §4, §5, §6, §7

[9] = test system: SASKR = Salsola iberica (Russian thistle); assay: as above; assay type: in vivo; conditions: 20-22 d
Description: as §1, §2, §3, §4, §5, §6, §7

[10] = test system: VERPE = Veronica persica (bird's-eye speedwell); assay: as above; assay type: in vivo; conditions: 20-22 d
Description: as §1, §2, §3, §4, §5, §6, §7

[11] = test system: HORVW (winter barley); assay: Postemergence herbicidal safening, greenhouse, visual injury; assay type: in vivo, Hordeum vulgare; conditions: applied alone at 140 g/ha; 20-22 d; listed as 1 Methyl Ester
Description: as §1, with “stage. […]” for “stage.”
as §3, with “kill. […]” for “kill.”

[12] = test system: HORVS = Hordeum vulgare (spring barley); assay: as above; assay type: in vivo; conditions: 20-22 d
Description: as §1, §2, §3, §4, §5, §6, §7

[13] = test system: TRZAW = Triticum aestivum (winter wheat); assay: as above; assay type: in vivo; conditions: applied alone at 140 g/ha; 20-22 d; listed as 1 Methyl Ester
Description: as §1, §2, §3, §4, §5, §6, §7

[14] = test system: TRZAS = Triticum aestivum (spring wheat); assay: as above; assay type: in vivo; conditions: 20-22 d
Description: as §1, §2, §3, §4, §5, §6, §7

[15] = applied alone at 8.75 g/ha, listed as 1 Methyl Ester
[16] = applied alone at 35 g/ha, listed as 1 Methyl Ester
[17] = applied alone at 35 g/ha, listed as (I) Methyl ester
[18] = applied alone at 140 g/ha, listed as 1 Methyl Ester

## CCCCCC(C)OC(=O)COc1ccc(Cl)c2cccnc12 (centres unmarked) [Cloquintocet-mexyl, cloquintocet-mexyl]
[1]; applied alone at 1.1 g/ha
  PAPRH Ob (observed injury): 0%
[1]; applied alone at 2.2 g/ha
  PAPRH Ob (observed injury): 0%
[1]; applied alone at 4.4 g/ha
  PAPRH Ob (observed injury): 0%
[1]; applied alone at 8.75 g/ha
  PAPRH Ob (observed injury): 0%
[1]; applied alone at 17.5 g/ha
  PAPRH Ob (observed injury): 0%
[1]; applied alone at 35 g/ha
  PAPRH Ob (observed injury): 0%
[1]; applied alone at 70 g/ha
  PAPRH Ob (observed injury): 0%
[2]; applied alone at 1.1 g/ha
  LAMPU Ob (observed injury): 0%
[2]; applied alone at 2.2 g/ha
  LAMPU Ob (observed injury): 0%
[2]; applied alone at 4.4 g/ha
  LAMPU Ob (observed injury): 0%
[2]; applied alone at 8.75 g/ha
  LAMPU Ob (observed injury): 0%
[2]; applied alone at 17.5 g/ha
  LAMPU Ob (observed injury): 0%
[2]; applied alone at 35 g/ha
  LAMPU Ob (observed injury): 0%
[2]; applied alone at 70 g/ha
  LAMPU Ob (observed injury): 0%
[3]; applied alone at 1.1 g/ha
  POLCO Ob (observed injury): 0%
[3]; applied alone at 2.2 g/ha
  POLCO Ob (observed injury): 0%
[3]; applied alone at 4.4 g/ha
  POLCO Ob (observed injury): 0%
[3]; applied alone at 8.75 g/ha
  POLCO Ob (observed injury): 0%
[3]; applied alone at 17.5 g/ha
  POLCO Ob (observed injury): 0%
[3]; applied alone at 35 g/ha
  POLCO Ob (observed injury): 0%
[3]; applied alone at 70 g/ha
  POLCO Ob (observed injury): 0%
[4]; applied alone at 1.0937 g/ha
  MATCH Ob (observed injury): 0%
[4]; applied alone at 1.1 g/ha
  MATCH Ob (observed injury): 0%
[4]; applied alone at 2.1875 g/ha
  MATCH Ob (observed injury): 0%
[4]; applied alone at 2.2 g/ha
  MATCH Ob (observed injury): 0%
[4]; applied alone at 4.375 g/ha
  MATCH Ob (observed injury): 0%
[4]; applied alone at 4.4 g/ha
  MATCH Ob (observed injury): 0%
[4]; applied alone at 8.75 g/ha
  MATCH Ob (observed injury): 0%
[4]; applied alone at 17.5 g/ha
  MATCH Ob (observed injury): 0%
[4]; applied alone at 35 g/ha
  MATCH Ob (observed injury): 0%
[4]; applied alone at 70 g/ha
  MATCH Ob (observed injury): 0%
[5]; applied alone at 1.0937 g/ha
  VIOTR Ob (observed injury): 0%
[5]; applied alone at 1.1 g/ha
  VIOTR Ob (observed injury): 0%
[5]; applied alone at 2.1875 g/ha
  VIOTR Ob (observed injury): 0%
[5]; applied alone at 2.2 g/ha
  VIOTR Ob (observed injury): 0%
[5]; applied alone at 4.375 g/ha
  VIOTR Ob (observed injury): 0%
[5]; applied alone at 4.4 g/ha
  VIOTR Ob (observed injury): 0%
[5]; applied alone at 8.75 g/ha
  VIOTR Ob (observed injury): 0%
[5]; applied alone at 17.5 g/ha
  VIOTR Ob (observed injury): 0%
[5]; applied alone at 35 g/ha
  VIOTR Ob (observed injury): 0%
[5]; applied alone at 70 g/ha
  VIOTR Ob (observed injury): 0%
[6]; applied alone at 1.1 g/ha
  STEME Ob (observed injury): 0%
[6]; applied alone at 2.2 g/ha
  STEME Ob (observed injury): 0%
[6]; applied alone at 4.4 g/ha
  STEME Ob (observed injury): 0%
[6]; applied alone at 8.75 g/ha
  STEME Ob (observed injury): 0%
[6]; applied alone at 17.5 g/ha
  STEME Ob (observed injury): 0%
[6]; applied alone at 35 g/ha
  STEME Ob (observed injury): 0%
[6]; applied alone at 70 g/ha
  STEME Ob (observed injury): 0%
[7]; applied alone at 1.1 g/ha
  GALAP Ob (observed injury): 0%
[7]; applied alone at 2.2 g/ha
  GALAP Ob (observed injury): 0%
[7]; applied alone at 4.4 g/ha
  GALAP Ob (observed injury): 0%
[7]; applied alone at 8.75 g/ha
  GALAP Ob (observed injury): 0%
[7]; applied alone at 17.5 g/ha
  GALAP Ob (observed injury): 0%
[7]; applied alone at 35 g/ha
  GALAP Ob (observed injury): 0%
[7]; applied alone at 70 g/ha
  GALAP Ob (observed injury): 0%
[8]; applied alone at 1.0937 g/ha
  KCHSC Ob (observed injury): 0%
[8]; applied alone at 1.1 g/ha
  KCHSC Ob (observed injury): 0%
[8]; applied alone at 2.1875 g/ha
  KCHSC Ob (observed injury): 0%
[8]; applied alone at 2.2 g/ha
  KCHSC Ob (observed injury): 0%
[8]; applied alone at 4.375 g/ha
  KCHSC Ob (observed injury): 0%
[8]; applied alone at 4.4 g/ha
  KCHSC Ob (observed injury): 0%
[8]; applied alone at 8.75 g/ha
  KCHSC Ob (observed injury): 0%
[8]; applied alone at 17.5 g/ha
  KCHSC Ob (observed injury): 0%
[8]; applied alone at 35 g/ha
  KCHSC Ob (observed injury): 0%
[8]; applied alone at 70 g/ha
  KCHSC Ob (observed injury): 0%
[9]; applied alone at 1.0937 g/ha
  SASKR Ob (observed injury): 0%
[9]; applied alone at 1.1 g/ha
  SASKR Ob (observed injury): 0%
[9]; applied alone at 2.1875 g/ha
  SASKR Ob (observed injury): 0%
[9]; applied alone at 2.2 g/ha
  SASKR Ob (observed injury): 0%
[9]; applied alone at 4.375 g/ha
  SASKR Ob (observed injury): 0%
[9]; applied alone at 4.4 g/ha
  SASKR Ob (observed injury): 0%
[9]; applied alone at 8.75 g/ha
  SASKR Ob (observed injury): 0%
[9]; applied alone at 17.5 g/ha
  SASKR Ob (observed injury): 0%
[9]; applied alone at 35 g/ha
  SASKR Ob (observed injury): 0%
[9]; applied alone at 70 g/ha
  SASKR Ob (observed injury): 0%
[10]; applied alone at 1.0937 g/ha
  VERPE Ob (observed injury): 0%
[10]; applied alone at 1.1 g/ha
  VERPE Ob (observed injury): 0%
[10]; applied alone at 2.1875 g/ha
  VERPE Ob (observed injury): 0%
[10]; applied alone at 2.2 g/ha
  VERPE Ob (observed injury): 0%
[10]; applied alone at 4.375 g/ha
  VERPE Ob (observed injury): 0%
[10]; applied alone at 4.4 g/ha
  VERPE Ob (observed injury): 0%
[10]; applied alone at 8.75 g/ha
  VERPE Ob (observed injury): 0%
[10]; applied alone at 17.5 g/ha
  VERPE Ob (observed injury): 0%
[10]; applied alone at 35 g/ha
  VERPE Ob (observed injury): 0%
[10]; applied alone at 70 g/ha
  VERPE Ob (observed injury): 0%

## COc1c(Cl)ccc(-c2cc(N)c(Cl)c(C(=O)O)n2)c1F [Compound 1 Methyl Ester, 4-amino-3-chloro-6-(4-chloro-2-fluoro-3-methoxyphenyl)pyridine-2-carboxylic acid]
[11]
  HORVW Ob (observed injury): 42%
[12]; [15]
  HORVS Ob (observed injury): 22%
[12]; [16]
  HORVS Ob (observed injury): 38%
[12]; [17]
  HORVS Ob (observed injury): 43%
[12]; [18]
  HORVS Ob (observed injury): 42%
[13]
  TRZAW Ob (observed injury): 32%
[14]; [15]
  TRZAS Ob (observed injury): 13%
[14]; [16]
  TRZAS Ob (observed injury): 43%
[14]; [17]
  TRZAS Ob (observed injury): 45%
[14]; applied alone at 70 g/ha, listed as 1 Methyl Ester
  TRZAS Ob (observed injury): 25%
[14]; [18]
  TRZAS Ob (observed injury): 37%
[1]; applied alone at 35 g/ha
  PAPRH Ob (observed injury): 97%
[2]; applied alone at 35 g/ha
  LAMPU Ob (observed injury): 100%
[4]; [18]
  MATCH Ob (observed injury): 82%
[5]; [18]
  VIOTR Ob (observed injury): 67%
[7]; applied alone at 140 g/ha
  GALAP Ob (observed injury): 100%
[8]; [18]
  KCHSC Ob (observed injury): 100%
[9]; [18]
  SASKR Ob (observed injury): 91%
[10]; [18]
  VERPE Ob (observed injury): 91%
